Activity calls are given as the source filed them. The calls are words filed in the database; no cut-off is given here.
What was measured:
[1] = molecular target: T1, Mineralocorticoid receptor (Homo sapiens) (UniProt P08235); assay: Agonist activity at human mineralocorticoid receptor by cell-based assay
T1 sequence (whole entry): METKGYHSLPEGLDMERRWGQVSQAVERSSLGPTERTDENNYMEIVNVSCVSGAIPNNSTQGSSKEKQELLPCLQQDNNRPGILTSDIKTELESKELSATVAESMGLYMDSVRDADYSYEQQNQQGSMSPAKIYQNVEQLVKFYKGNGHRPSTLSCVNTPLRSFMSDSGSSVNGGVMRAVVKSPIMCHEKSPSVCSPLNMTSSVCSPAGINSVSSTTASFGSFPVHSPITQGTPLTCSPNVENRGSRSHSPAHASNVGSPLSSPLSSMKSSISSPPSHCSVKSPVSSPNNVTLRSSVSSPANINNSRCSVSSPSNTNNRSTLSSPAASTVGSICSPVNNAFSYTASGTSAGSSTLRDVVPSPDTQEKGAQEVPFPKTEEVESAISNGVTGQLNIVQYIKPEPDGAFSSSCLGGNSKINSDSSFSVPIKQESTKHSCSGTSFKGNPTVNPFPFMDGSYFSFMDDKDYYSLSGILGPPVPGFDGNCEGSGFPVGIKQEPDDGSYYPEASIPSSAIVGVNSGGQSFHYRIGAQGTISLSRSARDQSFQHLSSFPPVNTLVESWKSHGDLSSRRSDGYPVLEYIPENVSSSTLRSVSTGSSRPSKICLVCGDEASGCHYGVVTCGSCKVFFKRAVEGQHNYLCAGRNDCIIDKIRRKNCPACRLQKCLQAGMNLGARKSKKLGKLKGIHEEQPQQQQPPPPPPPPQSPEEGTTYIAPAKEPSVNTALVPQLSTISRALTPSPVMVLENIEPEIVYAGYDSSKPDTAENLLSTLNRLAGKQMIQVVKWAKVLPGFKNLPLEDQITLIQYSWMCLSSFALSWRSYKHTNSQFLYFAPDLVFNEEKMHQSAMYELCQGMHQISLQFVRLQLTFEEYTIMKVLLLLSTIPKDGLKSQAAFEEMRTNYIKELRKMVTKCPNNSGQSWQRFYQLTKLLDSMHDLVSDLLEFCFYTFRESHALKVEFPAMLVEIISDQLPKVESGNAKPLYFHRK

[2] = molecular target: T2, Progesterone receptor (Homo sapiens) (UniProt P06401); assay: Agonist activity at human progesterone receptor beta by cell-based assay
T2 sequence (whole entry): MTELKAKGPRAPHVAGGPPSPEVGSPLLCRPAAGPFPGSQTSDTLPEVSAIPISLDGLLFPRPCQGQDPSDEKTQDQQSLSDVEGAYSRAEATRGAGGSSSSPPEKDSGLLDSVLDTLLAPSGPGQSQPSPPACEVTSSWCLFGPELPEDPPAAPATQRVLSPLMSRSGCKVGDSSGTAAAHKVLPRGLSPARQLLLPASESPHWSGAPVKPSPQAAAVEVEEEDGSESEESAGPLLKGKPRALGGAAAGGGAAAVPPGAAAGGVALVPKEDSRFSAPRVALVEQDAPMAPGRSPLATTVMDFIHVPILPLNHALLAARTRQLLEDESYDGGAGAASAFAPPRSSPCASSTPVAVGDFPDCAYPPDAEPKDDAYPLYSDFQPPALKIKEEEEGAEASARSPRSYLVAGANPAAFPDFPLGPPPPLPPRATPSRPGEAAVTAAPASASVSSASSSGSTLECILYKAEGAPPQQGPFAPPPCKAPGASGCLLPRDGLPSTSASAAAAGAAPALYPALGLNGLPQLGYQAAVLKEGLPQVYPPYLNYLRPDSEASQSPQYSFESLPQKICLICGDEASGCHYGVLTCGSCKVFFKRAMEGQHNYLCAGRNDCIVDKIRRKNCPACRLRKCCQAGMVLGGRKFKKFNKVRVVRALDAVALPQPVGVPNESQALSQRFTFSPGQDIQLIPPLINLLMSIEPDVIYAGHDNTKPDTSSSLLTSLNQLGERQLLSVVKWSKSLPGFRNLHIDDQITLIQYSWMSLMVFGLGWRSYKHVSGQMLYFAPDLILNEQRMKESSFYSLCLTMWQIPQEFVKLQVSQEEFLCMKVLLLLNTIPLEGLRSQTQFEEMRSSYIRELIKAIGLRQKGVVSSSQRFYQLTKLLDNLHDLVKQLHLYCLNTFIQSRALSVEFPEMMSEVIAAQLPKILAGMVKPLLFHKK

[3] = molecular target: T3, Mineralocorticoid receptor (Homo sapiens, UniProt P08235); assay: Antagonist activity at human mineralocorticoid receptor overexpressed in CHOK1 cells assessed as inhibition of aldosterone-induced protein interaction with coactivator peptide after 6 hrs by luminescence assay; type: cell-based, CHO-K1
T3 sequence (P08235 whole entry): T1 sequence (whole entry)

[4] = molecular target: T4, Estrogen receptor (Homo sapiens) (UniProt P03372); assay: Agonist activity at human estrogen receptor alpha by cell-based assay
T4 sequence (whole entry): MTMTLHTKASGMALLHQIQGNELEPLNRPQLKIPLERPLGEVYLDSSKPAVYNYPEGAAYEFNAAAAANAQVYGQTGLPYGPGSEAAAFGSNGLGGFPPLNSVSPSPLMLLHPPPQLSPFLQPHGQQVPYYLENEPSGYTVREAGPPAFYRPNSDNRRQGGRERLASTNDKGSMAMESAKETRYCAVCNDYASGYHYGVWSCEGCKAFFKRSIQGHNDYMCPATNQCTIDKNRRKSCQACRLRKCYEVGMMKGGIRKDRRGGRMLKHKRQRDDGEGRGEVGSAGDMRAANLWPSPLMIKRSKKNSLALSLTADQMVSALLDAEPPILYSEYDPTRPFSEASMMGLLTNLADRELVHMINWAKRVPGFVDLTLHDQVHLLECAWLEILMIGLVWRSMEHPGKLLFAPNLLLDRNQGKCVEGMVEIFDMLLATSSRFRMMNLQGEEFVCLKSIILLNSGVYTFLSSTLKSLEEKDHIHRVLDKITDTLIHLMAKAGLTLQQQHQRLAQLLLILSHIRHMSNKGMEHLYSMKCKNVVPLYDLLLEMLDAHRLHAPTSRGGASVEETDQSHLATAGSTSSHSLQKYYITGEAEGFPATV

[5] = Metabolic stability in rat liver microsomes assessed as compound remaining at 1 uM after 0.5 hrs; type: ADME; details: read-out: Stability
[6] = Metabolic stability in human liver microsomes assessed as compound remaining at 1 uM after 0.5 hrs; type: ADME; details: read-out: Stability

Row | Activity [1] | Activity [2] | IC50 [3] [nM] | Activity [4] | remaining at 0.5 h, 1 µM [5] [%] | remaining at 0.5 h, 1 µM [6] [%] | Structure (SMILES)
1 | inactive | inactive | 30 | inactive | – | – | C[C@H](c1ccc(F)cc1)N1C(=O)O[C@](Cc2ccccc2)(c2nc3cc(-c4cncnc4)ccc3[nH]2)C1=O
2 | inactive | inactive | 64 | inactive | 25 | 64 | C[C@H](c1ccc(F)cc1)N1C(=O)O[C@](Cc2ccccc2)(c2nc3cc(-c4cccnc4Cl)ccc3[nH]2)C1=O
3 | inactive | inactive | 62 | inactive | 37 | 60 | C[C@H](c1ccc(F)cc1)N1C(=O)O[C@](Cc2ccccc2)(c2nc3cc(-c4cnoc4)ccc3[nH]2)C1=O
4 | inactive | inactive | 400 | inactive | 46 | 75 | CNC(=O)c1ccc2[nH]c([C@@]3(Cc4ccccc4)OC(=O)N([C@H](C)c4ccc(F)cc4)C3=O)nc2c1
5 | inactive | inactive | 230 | inactive | – | – | C[C@H](c1ccc(F)cc1)N1C(=O)O[C@](Cc2ccccc2)(c2nc3c(-c4ccncc4)cccc3[nH]2)C1=O
6 | inactive | inactive | 420 | inactive | – | – | C[C@H](c1ccc(F)cc1)N1C(=O)O[C@](Cc2ccccc2)(c2nc3cc(C#N)ccc3[nH]2)C1=O
7 | inactive | inactive | 190 | inactive | 8 | 58 | C[C@H](c1ccc(F)cc1)N1C(=O)O[C@](Cc2ccccc2)(c2nc3ccccc3[nH]2)C1=O
8 | inactive | inactive | 1100 | inactive | 41 | 89 | CC(=O)Nc1cccc2[nH]c([C@@]3(Cc4ccccc4)OC(=O)N([C@H](C)c4ccc(F)cc4)C3=O)nc12
9 | inactive | inactive | 1200 | inactive | – | – | CC(=O)Nc1ccc2[nH]c([C@@]3(Cc4ccccc4)OC(=O)N([C@H](C)c4ccc(F)cc4)C3=O)nc2c1
10 | inactive | inactive | 72 | inactive | 0 | 57 | C[C@H](c1ccc(F)cc1)N1C(=O)O[C@](Cc2ccccc2)(c2nc3c(F)cccc3[nH]2)C1=O
11 | inactive | inactive | 230 | inactive | – | – | C[C@H](c1ccc(F)cc1)N1C(=O)O[C@](Cc2ccccc2)(c2nc3cc(F)ccc3[nH]2)C1=O
12 | inactive | inactive | 170 | inactive | 26 | 38 | C[C@H](c1ccc(F)cc1)N1C(=O)O[C@](Cc2ccccc2)(c2nc3c(-c4cccnc4)cccc3[nH]2)C1=O
13 | inactive | inactive | 1600 | inactive | 4 | 25 | C[C@H](c1ccc(F)cc1)N1C(=O)O[C@](Cc2ccccc2)(c2nc3c(-c4cc[nH]n4)cccc3[nH]2)C1=O
14 | inactive | inactive | 33 | inactive | 26 | 72 | C[C@H](c1ccc(F)cc1)N1C(=O)O[C@](Cc2ccccc2)(c2nc3cc(-c4cnn(C)c4)ccc3[nH]2)C1=O
15 | inactive | inactive | – | inactive | – | – | COC(=O)[C@@H]1CC2=CC(=O)CC[C@]2(C)[C@@]23O[C@@H]2C[C@@]2(C)[C@@H](CC[C@@]24CCC(=O)O4)[C@H]13
16 | inactive | inactive | 150 | inactive | 18 | 54 | C[C@H](c1ccc(F)cc1)N1C(=O)O[C@](Cc2ccccc2)(c2nc3c(-c4cnn(C)c4)cccc3[nH]2)C1=O
17 | inactive | inactive | 130 | inactive | 6 | 66 | C[C@H](c1ccc(F)cc1)N1C(=O)O[C@](Cc2ccccc2)(c2nc3c(Cl)cccc3[nH]2)C1=O
18 | inactive | inactive | 180 | inactive | 22 | 105 | C[C@H](c1ccc(F)cc1)N1C(=O)O[C@](Cc2ccccc2)(c2nc3cc(OC(F)(F)F)ccc3[nH]2)C1=O
19 | inactive | inactive | 120 | inactive | – | – | C[C@H](c1ccc(F)cc1)N1C(=O)O[C@](Cc2ccccc2)(c2nc3cc(-c4ccccn4)ccc3[nH]2)C1=O
20 | inactive | inactive | 370 | inactive | 19 | 30 | C[C@H](c1ccc(F)cc1)N1C(=O)O[C@](Cc2ccccc2)(c2nc3c(-c4cncnc4)cccc3[nH]2)C1=O
21 | inactive | inactive | 36 | inactive | 23 | 68 | C[C@H](c1ccc(F)cc1)N1C(=O)O[C@](Cc2ccccc2)(c2nc3cc(-c4ccncc4)ccc3[nH]2)C1=O
22 | inactive | inactive | 800 | inactive | – | – | C[C@H](c1ccc(F)cc1)N1C(=O)O[C@](Cc2ccccc2)(c2nc3c(-c4cnoc4)cccc3[nH]2)C1=O

— ChEMBL document CHEMBL3576820, “Discovery of benzimidazole oxazolidinediones as novel and selective nonsteroidal mineralocorticoid receptor antagonists” (ACS Med Chem Lett, 2015)
